Assay results taken from patent EP4745135A1 (Gluetacs Therapeutics (Shanghai) Co., Ltd., priority 2023, dated 2025).

Tests used:
[1] = tested on: GSPT1; assay: Western blot, degradation of substrate protein in hPBMCs; format: cell-based, Human
[2] = target: T1, human Cereblon WT GST-tagged protein (Homo sapiens, UniProt Q96SW2); assay: CRBN-binding affinity, HTRF (CEREBLON BINDING kit); conditions: for inhibition at 0.5 µM: read-out: Inhibition Rate at 0.5 µM (%); for inhibition at 2 µM: read-out: Inhibition Rate at 2 µM (%); for IC50: CRBN binding, HTRF, 3 hours at room temperature, read-out: HTRF IC50
T1 construct: purchased CISBIO 64BDCRBNPEH

[3] = target: T2, IKZF3 (Homo sapiens, UniProt Q96SW2+Q9UKT9); assay: Western blot, degradation of substrate protein in hPBMCs; format: cell-based
T2 construct: effects of the compounds of the present disclosure on the expression of target proteins in cells; endogenous in cells; host or cells: human PBMCs (Milecell Biotechnologies)

[4] = target: T3, IKZF2 (Homo sapiens, UniProt Q96SW2+Q9UKS7); assay: as above; format: cell-based
T3 construct: effects of the compounds of the present disclosure on the expression of target proteins in cells; endogenous in cells; host or cells: human PBMCs (Milecell Biotechnologies)

[5] = target: T4, IKZF1 (Homo sapiens, UniProt Q13422+Q96SW2); assay: as above; format: cell-based
T4 construct: effects of the compounds of the present disclosure on the expression of target proteins in cells; endogenous in cells; host or cells: human PBMCs (Milecell Biotechnologies)

[6] = target: T5, CK1α (Homo sapiens, UniProt P48729+Q96SW2); assay: as above; format: cell-based
T5 construct: effects of the compounds of the present disclosure on the expression of target proteins in cells; endogenous in cells; host or cells: human PBMCs (Milecell Biotechnologies)

[7] = target: T6, WEE1 (Homo sapiens, UniProt P30291+Q96SW2); assay: as above; format: cell-based
T6 construct: effects of the compounds of the present disclosure on the expression of target proteins in cells; endogenous in cells; host or cells: human PBMCs (Milecell Biotechnologies)

[8] = 24 hours treatment, compounds at 50 nM and 500 nM (concentration behind the class not stated)
[9] = Western blot, 24 hours of compound treatment, compounds tested at 50 nM and 500 nM (concentration for the table not stated)

T1 sequence (Q96SW2 whole entry): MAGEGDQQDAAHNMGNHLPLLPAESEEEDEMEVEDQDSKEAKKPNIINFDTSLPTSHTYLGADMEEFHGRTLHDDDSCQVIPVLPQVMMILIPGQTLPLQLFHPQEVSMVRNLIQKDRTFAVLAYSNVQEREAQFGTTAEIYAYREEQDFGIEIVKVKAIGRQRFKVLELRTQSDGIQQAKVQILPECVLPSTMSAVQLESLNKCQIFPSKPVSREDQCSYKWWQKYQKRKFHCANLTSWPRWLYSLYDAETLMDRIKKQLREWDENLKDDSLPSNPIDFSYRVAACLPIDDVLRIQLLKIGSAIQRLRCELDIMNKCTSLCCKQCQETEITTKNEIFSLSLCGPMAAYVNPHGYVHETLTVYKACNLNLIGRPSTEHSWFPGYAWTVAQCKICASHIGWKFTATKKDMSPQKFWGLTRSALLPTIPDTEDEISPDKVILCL
T4 sequence (Q13422 whole entry): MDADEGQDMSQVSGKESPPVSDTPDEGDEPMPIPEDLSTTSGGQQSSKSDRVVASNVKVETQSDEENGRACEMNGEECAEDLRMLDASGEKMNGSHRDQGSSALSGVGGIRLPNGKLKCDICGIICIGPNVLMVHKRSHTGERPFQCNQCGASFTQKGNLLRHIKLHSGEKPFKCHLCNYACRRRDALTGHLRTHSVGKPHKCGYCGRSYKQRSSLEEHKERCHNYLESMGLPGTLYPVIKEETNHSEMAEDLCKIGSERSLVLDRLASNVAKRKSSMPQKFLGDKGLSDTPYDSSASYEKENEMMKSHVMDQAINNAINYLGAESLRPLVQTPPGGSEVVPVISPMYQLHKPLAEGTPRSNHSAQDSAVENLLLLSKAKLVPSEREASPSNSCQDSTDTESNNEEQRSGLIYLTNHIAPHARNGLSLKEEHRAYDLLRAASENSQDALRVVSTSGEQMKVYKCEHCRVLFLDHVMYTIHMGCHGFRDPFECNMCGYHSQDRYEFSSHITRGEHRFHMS
T4 sequence (Q96SW2 whole entry): as the sequence (Q96SW2 whole entry) above
T4 sequence (Q16531 whole entry partner): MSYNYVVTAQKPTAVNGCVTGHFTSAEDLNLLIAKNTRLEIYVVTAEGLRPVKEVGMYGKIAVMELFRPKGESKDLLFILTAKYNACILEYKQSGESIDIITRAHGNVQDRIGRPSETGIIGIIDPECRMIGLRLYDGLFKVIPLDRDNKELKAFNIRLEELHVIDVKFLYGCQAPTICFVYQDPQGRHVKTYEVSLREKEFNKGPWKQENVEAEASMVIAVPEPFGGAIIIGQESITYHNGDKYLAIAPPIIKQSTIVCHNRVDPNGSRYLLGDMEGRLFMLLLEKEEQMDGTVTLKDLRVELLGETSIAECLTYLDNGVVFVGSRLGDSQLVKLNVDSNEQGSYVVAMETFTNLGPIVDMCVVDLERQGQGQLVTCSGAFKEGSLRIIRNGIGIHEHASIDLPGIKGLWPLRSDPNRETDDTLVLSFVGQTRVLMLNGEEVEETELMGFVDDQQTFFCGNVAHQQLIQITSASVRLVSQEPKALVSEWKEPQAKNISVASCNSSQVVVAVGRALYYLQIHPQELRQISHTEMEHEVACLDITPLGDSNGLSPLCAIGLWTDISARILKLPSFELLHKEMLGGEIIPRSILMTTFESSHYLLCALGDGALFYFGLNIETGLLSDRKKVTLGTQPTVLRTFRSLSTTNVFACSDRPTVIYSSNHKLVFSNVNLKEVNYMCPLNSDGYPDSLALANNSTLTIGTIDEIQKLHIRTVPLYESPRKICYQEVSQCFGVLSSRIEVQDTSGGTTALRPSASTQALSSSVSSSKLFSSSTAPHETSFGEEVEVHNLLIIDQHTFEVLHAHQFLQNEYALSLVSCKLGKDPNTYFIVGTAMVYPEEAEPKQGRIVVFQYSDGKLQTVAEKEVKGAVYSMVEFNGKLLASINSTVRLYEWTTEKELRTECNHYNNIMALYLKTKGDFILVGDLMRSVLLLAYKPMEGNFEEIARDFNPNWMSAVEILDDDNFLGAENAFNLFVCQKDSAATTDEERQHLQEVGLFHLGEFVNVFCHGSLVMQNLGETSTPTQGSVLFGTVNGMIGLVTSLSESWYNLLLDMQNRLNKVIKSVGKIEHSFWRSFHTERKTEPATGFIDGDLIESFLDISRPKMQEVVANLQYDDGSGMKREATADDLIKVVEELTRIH
T6 sequence (P30291 whole entry): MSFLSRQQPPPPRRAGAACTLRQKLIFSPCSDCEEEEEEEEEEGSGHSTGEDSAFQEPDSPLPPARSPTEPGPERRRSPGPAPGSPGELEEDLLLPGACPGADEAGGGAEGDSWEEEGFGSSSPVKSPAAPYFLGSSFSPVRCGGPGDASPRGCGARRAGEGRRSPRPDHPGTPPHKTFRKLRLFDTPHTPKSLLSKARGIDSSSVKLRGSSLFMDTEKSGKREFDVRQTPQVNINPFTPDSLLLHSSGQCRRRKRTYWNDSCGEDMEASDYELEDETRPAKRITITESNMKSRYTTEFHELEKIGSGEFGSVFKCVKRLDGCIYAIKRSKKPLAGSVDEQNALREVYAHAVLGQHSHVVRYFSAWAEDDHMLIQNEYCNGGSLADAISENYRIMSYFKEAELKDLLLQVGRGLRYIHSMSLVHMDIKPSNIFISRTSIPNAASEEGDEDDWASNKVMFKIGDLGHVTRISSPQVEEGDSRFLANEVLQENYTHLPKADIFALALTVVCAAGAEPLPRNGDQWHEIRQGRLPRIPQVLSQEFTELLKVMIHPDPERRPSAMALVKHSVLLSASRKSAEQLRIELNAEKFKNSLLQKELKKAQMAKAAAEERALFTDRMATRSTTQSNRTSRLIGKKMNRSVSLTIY
T6 sequence (Q96SW2 whole entry): as the sequence (Q96SW2 whole entry) above
T6 sequence (Q16531 whole entry partner): as the sequence (Q16531 whole entry partner) above
T5 sequence (P48729 whole entry): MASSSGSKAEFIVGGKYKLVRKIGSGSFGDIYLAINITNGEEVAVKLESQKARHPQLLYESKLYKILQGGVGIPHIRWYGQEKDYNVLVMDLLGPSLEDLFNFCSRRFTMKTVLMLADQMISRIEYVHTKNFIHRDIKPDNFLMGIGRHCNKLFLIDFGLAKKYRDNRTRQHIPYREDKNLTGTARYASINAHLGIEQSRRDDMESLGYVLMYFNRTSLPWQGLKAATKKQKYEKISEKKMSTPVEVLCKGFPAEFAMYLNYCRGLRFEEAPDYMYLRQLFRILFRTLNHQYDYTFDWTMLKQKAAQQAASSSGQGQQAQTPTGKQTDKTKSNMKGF
T5 sequence (Q96SW2 whole entry): as the sequence (Q96SW2 whole entry) above
T5 sequence (Q16531 whole entry partner): as the sequence (Q16531 whole entry partner) above
T3 sequence (Q9UKS7 whole entry): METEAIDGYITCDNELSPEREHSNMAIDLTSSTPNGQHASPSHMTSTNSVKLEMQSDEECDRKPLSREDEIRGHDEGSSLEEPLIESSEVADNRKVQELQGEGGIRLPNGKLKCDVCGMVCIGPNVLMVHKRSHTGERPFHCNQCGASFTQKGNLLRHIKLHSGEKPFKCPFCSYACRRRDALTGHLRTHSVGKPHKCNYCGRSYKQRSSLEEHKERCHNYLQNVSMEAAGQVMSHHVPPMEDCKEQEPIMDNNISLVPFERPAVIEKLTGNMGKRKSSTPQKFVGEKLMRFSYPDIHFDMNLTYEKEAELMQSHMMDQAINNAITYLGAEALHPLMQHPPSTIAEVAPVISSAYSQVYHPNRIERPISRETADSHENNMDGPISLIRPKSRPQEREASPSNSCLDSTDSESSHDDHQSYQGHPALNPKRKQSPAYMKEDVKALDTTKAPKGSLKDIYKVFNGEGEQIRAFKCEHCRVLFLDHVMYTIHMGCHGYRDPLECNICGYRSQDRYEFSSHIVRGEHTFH
T3 sequence (Q96SW2 whole entry): as the sequence (Q96SW2 whole entry) above
T3 sequence (Q16531 whole entry partner): as the sequence (Q16531 whole entry partner) above
T2 sequence (Q9UKT9 whole entry): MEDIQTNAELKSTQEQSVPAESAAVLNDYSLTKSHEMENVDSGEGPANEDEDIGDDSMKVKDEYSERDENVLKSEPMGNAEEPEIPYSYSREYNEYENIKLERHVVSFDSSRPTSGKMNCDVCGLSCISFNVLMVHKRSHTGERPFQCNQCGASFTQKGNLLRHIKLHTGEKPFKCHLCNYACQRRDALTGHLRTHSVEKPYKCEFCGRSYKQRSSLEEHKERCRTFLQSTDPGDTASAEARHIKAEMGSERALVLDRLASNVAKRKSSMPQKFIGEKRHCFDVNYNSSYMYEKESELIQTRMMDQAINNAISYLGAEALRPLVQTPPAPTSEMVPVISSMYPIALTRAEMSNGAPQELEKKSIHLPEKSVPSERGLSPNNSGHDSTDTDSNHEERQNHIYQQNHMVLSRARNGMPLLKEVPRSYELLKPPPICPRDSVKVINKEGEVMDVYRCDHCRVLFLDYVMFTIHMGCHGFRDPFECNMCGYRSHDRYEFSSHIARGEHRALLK
T2 sequence (Q96SW2 whole entry): as the sequence (Q96SW2 whole entry) above
T2 sequence (Q16531 whole entry partner): as the sequence (Q16531 whole entry partner) above

Compound | inhibition at 0.5 µM [2] [%] | inhibition at 2 µM [2] [%] | GSPT1 substrate protein remaining % [1, 8] | IKZF3 substrate protein remaining % [3, 8] | IKZF2 substrate protein remaining % [4, 8] | IKZF 1 substrate protein remaining % [5, 8] | CK1α substrate protein remaining % [6, 8] | Wee1 substrate protein remaining % [7, 8] | GSPT1 substrate protein remaining % [1, 9] | IC50 [2] [nM] | IKZF3 substrate protein remaining % [3, 9] | IKZF2 substrate protein remaining % [4, 9] | IKZF 1 substrate protein remaining % [5, 9] | CK1α substrate protein remaining % [6, 9] | Wee1 substrate protein remaining % [7, 9]
O=C1CCC(N2Cc3c(CN4CCC(c5cccc6c(F)cccc56)CC4)cccc3C2=S)C(=O)N1 (centres unmarked) [GT-08855, 3-(4-((4-(5-fluoronaphthalen-1-yl)piperidin-1-yl)methyl)-1-thioxoisoindolin-2-yl)piperidine-2,6-dione] | 30 to 40 | 60 to 80 | A (0% ≤ substrate protein remaining % ≤ 80%) | B (80%< substrate protein remaining %≤ 100%) | B (80%< substrate protein remaining %≤ 100%) | B (80%< substrate protein remaining %≤ 100%) | B (80%< substrate protein remaining %≤ 100%) | A (0% ≤ substrate protein remaining % ≤ 80%) | – | – | – | – | – | – | –
Cc1ccc(N2CCN(Cc3ccc4c(c3)CN(C3CCC(=O)NC3=O)C4=S)CC2)s1 (centres unmarked) [GT-05110, 3-(5-((4-(5-methylthiophen-2-yl)piperazin-1-yl)methyl)-1-thioxoisoindolin-2-yl)piperidine-2,6-dione] | – | – | – | – | – | – | – | – | A (0% ≤ substrate protein remaining % ≤ 80%) | 100 to 500 | B (80%< substrate protein remaining %≤ 100%) | B (80%< substrate protein remaining %≤ 100%) | B (80%< substrate protein remaining %≤ 100%) | B (80%< substrate protein remaining %≤ 100%) | B (80%< substrate protein remaining %≤ 100%)
CC1(C)CCC(CN2C3CCC2CN(Cc2ccc4c(c2)CN(C2CCC(=O)NC2=O)C4=S)C3)=C(c2ccc(Cl)cc2)C1 (centres unmarked) [GT-08162, 3-(5-((8-((4'-chloro-5,5-dimethyl-3,4,5,6-tetrahydro-[1,1'-biphenyl]-2-yl)methyl)-3,8-diazabicyclo[3.2.1]octan-3-yl)methyl)-1-thioxoisoindolin-2-yl)piperidine-2,6-dione] | 30 to 40 | 60 to 80 | B (80%< substrate protein remaining %≤ 100%) | B (80%< substrate protein remaining %≤ 100%) | B (80%< substrate protein remaining %≤ 100%) | B (80%< substrate protein remaining %≤ 100%) | B (80%< substrate protein remaining %≤ 100%) | A (0% ≤ substrate protein remaining % ≤ 80%) | – | – | – | – | – | – | –
Cc1csc2ncnc(C3=CCN(Cc4ccc5c(c4)CN(C4CCC(=O)NC4=O)C5=S)CC3)c12 (centres unmarked) [GT-09315, 3-(5-((4-(5-methylthieno[2,3-d]pyrimidin-4-yl)-3,6-dihydropyridin-1(2H)-yl)methyl)-1-thioxoisoindolin-2-yl)piperidine-2,6-dione] | 60 to 80 | 80 to 100 | A (0% ≤ substrate protein remaining % ≤ 80%) | A (0% ≤ substrate protein remaining % ≤ 80%) | B (80%< substrate protein remaining %≤ 100%) | A (0% ≤ substrate protein remaining % ≤ 80%) | B (80%< substrate protein remaining %≤ 100%) | B (80%< substrate protein remaining %≤ 100%) | – | – | – | – | – | – | –
Cc1ccsc1C1=CCN(Cc2ccc3c(c2)C(=S)N(C2CCC(=O)NC2=O)C3)CC1 (centres unmarked) [GT-05032, 3-(6-((4-(3-methylthiophen-2-yl)-3,6-dihydropyridin-1(2H)-yl)methyl)-1-thioxoisoindolin-2-yl)piperidine-2,6-dione] | – | – | A (0% ≤ substrate protein remaining % ≤ 80%) | A (0% ≤ substrate protein remaining % ≤ 80%) | B (80%< substrate protein remaining %≤ 100%) | B (80%< substrate protein remaining %≤ 100%) | B (80%< substrate protein remaining %≤ 100%) | B (80%< substrate protein remaining %≤ 100%) | – | 100 to 500 | – | – | – | – | –
Cc1csc2ncnc(N3CCN(Cc4cccc5c4CN(C4CCC(=O)NC4=O)C5=S)CC3)c12 (centres unmarked) [GT-08913, 3-(4-((4-(5-methylthieno[2,3-d]pyrimidin-4-yl)piperazin-1-yl)methyl)-1-thioxoisoindolin-2-yl)piperidine-2,6-dione] | 60 to 80 | 80 to 100 | B (80%< substrate protein remaining %≤ 100%) | B (80%< substrate protein remaining %≤ 100%) | B (80%< substrate protein remaining %≤ 100%) | B (80%< substrate protein remaining %≤ 100%) | B (80%< substrate protein remaining %≤ 100%) | A (0% ≤ substrate protein remaining % ≤ 80%) | – | – | – | – | – | – | –
O=C1CCC(N2Cc3c(CN4CCN(c5nc(Cl)nc6ccsc56)CC4)cccc3C2=S)C(=O)N1 (centres unmarked) [GT-08971, 3-(4-((4-(2-chlorothieno[3,2-d]pyrimidin-4-yl)piperazin-1-yl)methyl)-1-thioxoisoindolin-2-yl)piperidine-2,6-dione] | 80 to 100 | 80 to 100 | B (80%< substrate protein remaining %≤ 100%) | B (80%< substrate protein remaining %≤ 100%) | B (80%< substrate protein remaining %≤ 100%) | B (80%< substrate protein remaining %≤ 100%) | B (80%< substrate protein remaining %≤ 100%) | A (0% ≤ substrate protein remaining % ≤ 80%) | – | – | – | – | – | – | –

Further lines, with some results ahead:

inhibition at 0.5 µM [2] [%] | inhibition at 2 µM [2] [%] | Compound | GSPT1 substrate protein remaining % [1, 8] | IKZF3 substrate protein remaining % [3, 8] | IKZF2 substrate protein remaining % [4, 8] | IKZF 1 substrate protein remaining % [5, 8] | CK1α substrate protein remaining % [6, 8] | Wee1 substrate protein remaining % [7, 8] | GSPT1 substrate protein remaining % [1, 9] | IC50 [2] [nM] | IKZF3 substrate protein remaining % [3, 9] | IKZF2 substrate protein remaining % [4, 9] | IKZF 1 substrate protein remaining % [5, 9] | CK1α substrate protein remaining % [6, 9] | Wee1 substrate protein remaining % [7, 9]
40 to 53 | 60 to 80 | O=C1CCC(N2Cc3c(CN4CCC(c5ccsc5)CC4)cccc3C2=S)C(=O)N1 (centres unmarked) [GT-08315, 3-(4-((4-(thiophen-3-yl)piperidin-1-yl)methyl)-1-thioxoisoindolin-2-yl)piperidine-2,6-dione] | B (80%< substrate protein remaining %≤ 100%) | B (80%< substrate protein remaining %≤ 100%) | B (80%< substrate protein remaining %≤ 100%) | B (80%< substrate protein remaining %≤ 100%) | B (80%< substrate protein remaining %≤ 100%) | A (0% ≤ substrate protein remaining % ≤ 80%) | – | – | – | – | – | – | –
53 to 60 | 60 to 80 | CC1(C)CN(Cc2cccc3c2CN(C2CCC(=O)NC2=O)C3=S)CCN1C(c1ccccc1)c1ccccc1 (centres unmarked) [GT-08231, 3-(4-((4-benzhydryl-3,3-dimethylpiperazin-1-yl)methyl)-1-thioxoisoindolin-2-yl)piperidine-2,6-dione] | – | – | – | – | – | – | A (0% ≤ substrate protein remaining % ≤ 80%) | – | B (80%< substrate protein remaining %≤ 100%) | A (0% ≤ substrate protein remaining % ≤ 80%) | B (80%< substrate protein remaining %≤ 100%) | B (80%< substrate protein remaining %≤ 100%) | A (0% ≤ substrate protein remaining % ≤ 80%)
53 to 60 | 80 to 100 | Cc1ccc(C2CCN(Cc3cccc4c3CN(C3CCC(=O)NC3=O)C4=S)CC2)s1 (centres unmarked) [GT-08312, 3-(4-((4-(5-methylthiophen-2-yl)piperidin-1-yl)methyl)-1-thioxoisoindolin-2-yl)piperidine-2,6-dione] | B (80%< substrate protein remaining %≤ 100%) | B (80%< substrate protein remaining %≤ 100%) | B (80%< substrate protein remaining %≤ 100%) | B (80%< substrate protein remaining %≤ 100%) | B (80%< substrate protein remaining %≤ 100%) | A (0% ≤ substrate protein remaining % ≤ 80%) | – | – | – | – | – | – | –
30 to 40 | 80 to 100 | O=C1CCC(N2Cc3c(CN4CCC(c5c[nH]c6ncccc56)CC4)cccc3C2=S)C(=O)N1 (centres unmarked) [GT-08848, 3-(4-((4-(1H-pyrrolo[2,3-b]pyridin-3-yl)piperidin-1-yl)methyl)-1-thioxoisoindolin-2-yl)piperidine-2,6-dione] | – | – | – | – | – | – | B (80%< substrate protein remaining %≤ 100%) | – | B (80%< substrate protein remaining %≤ 100%) | B (80%< substrate protein remaining %≤ 100%) | B (80%< substrate protein remaining %≤ 100%) | B (80%< substrate protein remaining %≤ 100%) | A (0% ≤ substrate protein remaining % ≤ 80%)
